Columns and labels:
IL-6 [1] = assay: blood inflammatory cytokine (IL-6) level after intravenous injection, AAC-001 study; assay type: in vivo; conditions: mouse, blood collected at 0, 1, 2 and 4 hours, ELISA, FIG. 18
Method: To confirm the effect of the antibody-resiquimod complex (AAC-001) synthesized in the same manner as in Example 14.1 on the secretion of inflammatory cytokine in blood, after intravenously injecting the AAC-001 complex or resiquimod into a mouse, blood samples were collected at 0, 1, 2, and 4 hours. The collected blood sample was centrifuged at 10,000×g for 20 minutes to separate serum, and the concentration of IL-6, which is a representative inflammatory cytokine, present in serum was measured using the Invitrogen mouse IL-6 ELISA kit.

IL-6 [2] = assay: blood inflammatory cytokine (IL-6) level after intravenous injection, AAC-002 study; assay type: in vivo; conditions: mouse, two hours after intravenous injection, ELISA; FIG. 20
Method: To confirm the effect of the antibody-resiquimod complex (AAC-002) synthesized in the same manner as in Example 15.1 on the secretion of an inflammatory cytokine in blood, two hours after the AAC-002 complex (conjugated TLR7/8a-Blocked active site) was intravenously injected into a mouse, blood samples were collected. The collected blood sample was centrifuged at 10,000×g for 20 minutes to separate serum, and the concentration of IL-6, which is a representative inflammatory cytokine, present in serum was measured using the Invitrogen mouse IL-6 ELISA kit. As controls, a phosphate-buffered saline-injected group (Blank), a resiquimod only-injected group (Bare TLR7/8a-Uncomplexd), and a group into which an antibody-resiquimod complex in which the antibody binds to a site other than the active site, is injected (conjugated TLR7/8a-Live active site) were used for comparison.

[3] = size of complex in aqueous solution by spectroscopy; assay type: physicochemical; conditions: in an aqueous solution; FIG. 21
Method: To synthesize a complex of a protein antigen, which is a type of sulfhydryl group-containing protein-based drug, and resiquimod, having a bond cleaved by cathepsin-B, first, resiquimod to which a linker binds to its active site was synthesized. In further detail, resiquimod (10 mg) and Mal-Val-Cit-PAB-PNP (47.2 mg) were added to 2 mL of N,N-dimethylformamide (DMF), and then dissolved. Afterward, N,N-diisopropylethylamine (DIPEA; 6.7 μL) and 1-hydroxybenzotriazole hydrate (1-HOBt; 315 μg) were added. Then, a mixture was prepared by stirring at room temperature for 16 hours. The OVA protein antigen (10 mg) was added to the prepared mixture and reacted, thereby preparing a complex, and then the resulting complex was purified by thin-layer chromatography, thereby preparing an OVA protein antigen-resiquimod complex having a bond cleaved by cathepsin-B. Then, the prepared complex was subjected to spectroscopy to confirm its size.

Row | Molecule | inflammatory cytokine (IL-6) level in serum (IL-6 [1]) | inflammatory cytokine (IL-6) level in serum (IL-6 [2]) | nanoparticle size [3]
1 | CCOCc1nc2c(N)nc3ccccc3c2n1CC(C)(C)O [resiquimod] | promotes the secretion of inflammatory cytokines and induces a cytokine storm | remarkably increasing an inflammatory cytokine level in blood | –
2 | complex of the OVA protein antigen and resiquimod, having a bond cleaved by cathepsin-B: OVA protein antigen linked to resiquimod active site via Mal-Val-Cit-PAB linker cleaved by cathepsin-B (conjugate, UniProt P01012 2-386, looked up, resiquimod via Mal-Val-Cit-PAB linker) Ovalbumin: GSIGAASMEFCFDVFKELKVHHANENIFYCPIAIMSALAMVYLGAKDSTRTQINKVVRFDKLPGFGDSIEAQCGTSVNVHSSLRDILNQITKPNDVYSFSLASRLYAEERYPILPEYLQCVKELYRGGLEPINFQTAADQARELINSWVESQTNGIIRNVLQPSSVDSQTAMVLVNAIVFKGLWEKAFKDEDTQAMPFRVTEQESKPVQMMYQIGLFRVASMASEKMKILELPFASGTMSMLVLLPDEVSGLEQLESIINFEKLTEWTSSNVMEERKIKVYLPRMKMEEKYNLTSVLMAMGITDVFSSSANLSGISSAESLKISQAVHAAHAEINEAGREVVGSAEAGVDAASVSEEFRADHPFLFCIKHIATNAVLFFGRCVSP | – | – | approximately 99.7 nm
